The text below walks through data of US8895762B2, “Process for the preparation of sulfamide derivatives” (Janssen Pharmaceutica NV, priority 2011, dated 2014).

The nature of the data set: solubility in water at room temperature. The data set is classed as physicochemical.

On to `NC[C@H]1COc2cc(Cl)ccc2O1` [compound of formula (V-S), (2S)-6-chloro-2,3-dihydro-1,4-benzodioxin-2-methanamine], for which the solubility in water stood at 0.35 g/100 g water.
